Non-standard residues stand in square brackets, D forms with d. Residues, ends and D or L forms follow the SMILES beside them. No end group written: not given here.

In one series the target is T1, Ras-GAP interaction (Bos taurus, UniProt P09851).
T1 construct: made in house; host or cells: GAP: E. coli JM109 (plasmid pYO); Ha-Ras: E. coli RRllaci^q (plasmid pRas[Gly12 Ala59])
T1 sequence (P09851 1-1044): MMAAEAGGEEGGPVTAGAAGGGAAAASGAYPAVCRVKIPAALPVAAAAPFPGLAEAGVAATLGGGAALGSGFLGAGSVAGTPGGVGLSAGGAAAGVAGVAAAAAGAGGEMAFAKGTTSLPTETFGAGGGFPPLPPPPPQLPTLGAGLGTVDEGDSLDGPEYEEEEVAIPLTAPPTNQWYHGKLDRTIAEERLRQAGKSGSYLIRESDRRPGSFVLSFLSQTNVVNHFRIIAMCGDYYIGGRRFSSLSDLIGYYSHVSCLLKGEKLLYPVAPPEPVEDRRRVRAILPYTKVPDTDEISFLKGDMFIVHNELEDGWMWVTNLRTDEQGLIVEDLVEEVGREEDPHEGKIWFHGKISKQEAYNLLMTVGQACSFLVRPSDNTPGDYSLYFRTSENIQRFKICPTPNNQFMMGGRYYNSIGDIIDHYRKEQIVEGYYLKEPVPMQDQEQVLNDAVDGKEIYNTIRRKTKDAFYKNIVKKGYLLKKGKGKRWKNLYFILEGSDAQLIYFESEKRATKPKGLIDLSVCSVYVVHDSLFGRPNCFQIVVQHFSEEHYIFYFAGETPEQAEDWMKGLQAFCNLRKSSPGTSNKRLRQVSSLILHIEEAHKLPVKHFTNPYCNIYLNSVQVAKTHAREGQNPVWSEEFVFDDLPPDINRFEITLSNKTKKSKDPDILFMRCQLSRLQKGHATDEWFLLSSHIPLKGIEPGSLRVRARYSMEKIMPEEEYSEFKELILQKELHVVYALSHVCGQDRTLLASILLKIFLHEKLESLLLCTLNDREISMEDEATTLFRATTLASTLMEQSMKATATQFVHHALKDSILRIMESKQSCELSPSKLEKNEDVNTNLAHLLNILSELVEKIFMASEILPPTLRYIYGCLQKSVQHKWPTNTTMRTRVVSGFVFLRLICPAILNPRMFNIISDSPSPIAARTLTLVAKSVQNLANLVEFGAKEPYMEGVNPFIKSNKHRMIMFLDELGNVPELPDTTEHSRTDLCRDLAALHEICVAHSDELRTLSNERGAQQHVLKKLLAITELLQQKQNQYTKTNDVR
The series is described as follows: Ras-GAP interaction inhibition assay (GAP-stimulated Ras GTPase, charcoal adsorption). Type of series: biochemical, bovine. To be noted: concentration of peptide required to reduce GAP stimulated Ras-GTP hydrolysis by 50%; 10 fmol GAP, 240 fmol Ha ras p21-GTP, 4 minutes at 24°C. Here is the method:
The activity of the synthetic peptides of the present invention, as inhibitors of the interaction of ras with GAP was determined in an assay which measures GAP dependent, Ras GTPase activity. Bovine GAP was either purified from fresh bovine brains or recombinantly produced in E. coli. It is understood that the methods of the present invention may utilize either the recombinant full length GAP or the bovine brain derived GAP. In addition, GAP from other species, such as human and mouse, may be substituted for bovine GAP since they share about 95% amino acid homology. Truncated recombinant forms of GAP are also suitable for use in the Ras-GAP interaction assay [Marshall, M.S., et al., (1989), EMBO J., 8, pp1105-1110]. However, for the screening of synthetic peptides for their ability to block the Ras-GAP interaction, the recombinant, full length GAP is preferred.
The Ras protein utilized in the Ras-GAP GTPase assay of the present invention is Harvey ras (Ha-ras). It is understood that other forms of Ras protein are suitable for use in the present invention. Other suitable forms of Ras protein include, but are not limited to, Kirsten Ras, yeast S. cerevisiae RAS, and N-Ras. Furthermore, it is readily apparent to those skilled in the art that any form of Ras protein which is capable of interacting with GAP is suitable for use in the Ras-GAP GTPase assay.
Ras GTPase activity was measured by the charcoal adsorption procedure. Each 50 µL reaction contained 10 fmol purified GAP, 240 fmol Ha ras p21-[γ ³²P] GTP and 1 mg/mL BSA in buffer D. Varying amounts of the competing peptides were added as indicated. Prewarmed reactions (24°C) were initiated by the addition of GAP, then incubated for 4 minutes at 24°C. The reactions were terminated by the addition of 5 volumes of ice cold 5% activated charcoal (Sigma: HCl washed) in 50 mM NaH₂PO₄. GTPase activity was quantitated by measuring the free ³²P-orthophosphate in the cleared supernatant after centrifugation of the charcoal mix. GAP-stimulated Ras GTPase activity in the absence of competitors was 40-60 fmol Ras-GTP hydrolyzed; the 100% control value. In the absence of GAP, GTP hydrolysis was not detectable during the incubation period of the assay. Inhibitors of this assay block GAP-stimulated Ras GTPase without impairing intrinsic Ras GTPase, assayed in the absence of GAP following incubation at 24°C for one hour.
(§1) Ras peptides were dissolved in either 100% dimethyl formamide (DMF, American Burdick and Jackson) or 100% dimethyl sulfoxide (DMSO, Fluka UV-spectroscopy grade) at a calculated peptide concentration of 1-4 mM. Following 1 minute in a Sonicor SC-200 bath sonicator at room temperature, the peptide solutions were vortexed, and then centrifuged for 5 minutes at room temperature in an Eppendorf microfuge to remove any undissolved material. 20 µL of the cleared peptide solutions were then added to 80 µL of Buffer D in a dilution series covering a range of peptide concentrations from 0.02 µM up to the maximum solubility limit for each peptide. In each dilution, the solvent concentration was maintained at 20%. These peptides solutions were then centrifuged for 5 minutes at room temperature at 10,000 x g, and the cleared supernatants were divided into 2 parts. One part of each cleared peptide dilution was used in a GAP competition assay: 40 µL was added to a 5 µL solution containing 0.1 mg/mL BSA plus 240 fmol Ha-ras p21-[γ-³²P]GTP. Reactions were initiated upon addition of 5 µL of diluted GAP (10 fmol), and analyzed as described above.

Series [1] is classed as physicochemical. On the procedure: as §1
The other portion of the cleared peptide solution was measured spectrophotometrically to determine solubility and concentration of the peptides. Extinction coefficients were determined by measuring the absorbance at 277 nm of 2 peptides whose exact concentrations were quantitated by amino acid analysis. The extinction coefficients for peptide Ras 17-37 dissolved in buffer D/20% DMF or peptide Ras 91-103 (SEQ ID NO:14)dissolved in water/20% DMSO, were 2580 cm⁻¹M⁻¹ and 2230 cm⁻¹ M⁻¹, respectively. These values were used to determine the exact concentration for each peptide used at each point in the competition assay. In addition, peptide solubility was confirmed by comparing the light scattering at 600 nm for each peptide solution measured before and after centrifugation. Only concentrations reflecting 100% solubility were used in the dose response curves, and the maximum concentration used for each peptide competitor indicates the limit of solubility for that peptide.

At Ras-GAP interaction, LTIQIQNHFVDE [Ras 19-31(1)] came in with an IC50 of 36 µM. Further, the “Maximum Solubility” value in series [1] was above 1000 µM.

In the case of NHFVDEY [Ras 26-32], the IC50 at Ras-GAP interaction came to 350 µM. The “Maximum Solubility” value in series [1] turned out to be 800 µM.

Compound EELTIQLIQNHFVDEYD-NH2 [Ras 19-33(3)] returned an IC50 at Ras-GAP interaction of 50 µM. In addition, in series [1], the “Maximum Solubility” value was 225 µM.

With LTIQLIQNHFVDE [Ras 19-31], half-maximal inhibition on Ras-GAP interaction (IC50) was put at 48 µM. Also, the “Maximum Solubility” value in series [1] is above 1000 µM.

As for “MRTRVVSGFVFLRLIGPAILNPR [GAP 888-910(Gly903)]”, the “Maximum Solubility” value in series [1] amounted to 800 µM.

In the case of LTIQLIQNHFVDEYD [Ras 19-33], 1.4 µM corresponded to half-maximal inhibition on Ras-GAP interaction (IC50). Moreover, the “Maximum Solubility” value in series [1] was 23 µM.

For the compound `CC[C@H](C)[C@H](NC(=O)[C@H](CC(C)C)NC(=O)[C@H](CCC(N)=O)NC(=O)[C@@H](NC(=O)[C@@H](NC(=O)[C@H](CC(C)C)NC(=O)[C@H](C)NC(=O)[C@@H](N)CO)[C@@H](C)O)[C@@H](C)CC)C(=O)N[C@@H](CCC(N)=O)C(=O)N[C@@H](CC(N)=O)C(=O)N[C@@H](Cc1c[nH]cn1)C(=O)N[C@@H](Cc1ccccc1)C(=O)N[C@H](C(=O)N[C@@H](CC(=O)O)C(=O)N[C@@H](CCC(=O)O)C(=O)N[C@@H](Cc1ccc(O)cc1)C(=O)N[C@@H](CC(=O)O)C(=O)N1CCC[C@H]1C(=O)N[C@H](C(=O)N[C@H](C(=O)N[C@@H](CCC(=O)O)C(=O)N[C@@H](CC(=O)O)C(=O)N[C@@H](CO)C(=O)N[C@@H](Cc1ccc(O)cc1)C(=O)N[C@@H](CCCNC(=N)N)C(=O)N[C@@H](CCCCN)C(=O)N[C@@H](CCC(N)=O)C(=O)N[C@H](C(=O)O)C(C)C)[C@@H](C)CC)[C@@H](C)O)C(C)C` [Ras 17-44], 2.4 µM corresponded to half-maximal inhibition against Ras-GAP interaction (IC50). The “Maximum Solubility” value in series [1] stood at 200 µM.

On to SALTIQLIQNHFV [Ras 17-29], for which the “IC50*” value at Ras-GAP interaction is reported as “no inhibition”. In series [1], the “Maximum Solubility” value was 20 µM.

For EYDPTIEDSYRKQ [Ras 31-43], the “IC50*” value on Ras-GAP interaction is on record as “no inhibition”. The “Maximum Solubility” value in series [1] stood at 446 µM.

Take LTIQLIQNHFVDEY [Ras 19-32]: the IC50 at Ras-GAP interaction was 0.4 µM. The “Maximum Solubility” value in series [1] worked out at 48 µM.

On to `CC[C@H](C)[C@H](NC(=O)[C@H](CC(C)C)NC(=O)[C@H](CCC(N)=O)NC(=O)[C@@H](NC(=O)[C@@H](NC(=O)[C@@H](N)CC(C)C)[C@@H](C)O)[C@@H](C)CC)C(=O)N[C@@H](CCC(N)=O)C(=O)N[C@H](CC(N)=O)C(=O)N[C@@H](Cc1c[nH]cn1)C(=O)N[C@@H](Cc1ccccc1)C(=O)N[C@H](C(=O)N[C@@H](CC(=O)O)C(=O)N[C@@H](CCC(=O)O)C(=O)N[C@@H](Cc1ccc(O)cc1)C(=O)O)C(C)C` [Ras 19-32(D-Asn)] (H-LTIQLIQ[dN]HFVDEY-OH), for which, on Ras-GAP interaction, the IC50 amounted to 0.2 µM. Also, in series [1], the “Maximum Solubility” value was found to be 12 µM.

Take `CC[C@H](C)[C@H](NC(=O)[C@H](CC(C)C)NC(=O)[C@H](CCC(N)=O)NC(=O)[C@@H](NC(=O)[C@@H](NC(=O)[C@H](CC(C)C)NC(=O)[C@H](C)NC(=O)[C@@H](N)CO)[C@@H](C)O)[C@@H](C)CC)C(=O)N[C@@H](CCC(N)=O)C(=O)N[C@@H](CC(N)=O)C(=O)O` [Ras 17-26]: the “IC50*” value against Ras-GAP interaction was “no inhibition”. Moreover, the “Maximum Solubility” value in series [1] worked out at 600 µM.

`N[C@@H](CC(=O)O)C(=O)N[C@@H](CCC(=O)O)C(=O)N[C@@H](Cc1ccc(O)cc1)C(=O)O` [Ras 30-32] (H-Asp-Glu-Tyr-OH): the “IC50*” value against Ras-GAP interaction is “no inhibition”. In addition, in series [1], the “Maximum Solubility” value turned out to be 800 µM.

IQLIQNHFVDEY [Ras 21-32] yielded an IC50 at Ras-GAP interaction of 70 µM. Moreover, the “Maximum Solubility” value in series [1] is 120 µM.

For the compound TIQLIQNHFVDEY [Ras 20-32], the concentration for half-maximal inhibition (IC50) at Ras-GAP interaction is 18 µM. Moreover, the “Maximum Solubility” value in series [1] is 110 µM.

For orientation: IC50 means the concentration at which inhibition is half-maximal.

Values taken from EP0496162A2, “Peptide inhibitors of RAS-GAP interaction” (MERCK & CO. INC., priority 1990, dated 1992).
